Experiments:
[1] = target: T1, His-tagged recombinant human TrkA (Homo sapiens, UniProt P04629); assay: TrkA LanthaScreen Eu Kinase Binding Assay
T1 construct: 6HIS tagged cytoplasmic domain from Invitrogen, Cat. No. PV3144; purchased Invitrogen PV3144
Procedure: TrkA binding activity was determined in a TrkA LanthaScreen™ Eu Kinase Binding Assay. […] Three fold serial dilutions of compounds of the invention in DMSO were added to a final percentage of 2% DMSO. […] The percent of control was calculated using a ratiometric emission factor. The IC50 values were determined by fitting a four parameter model to the percent of control data.

off-target kinases = conditions: 10 μM
Text: (§1) The compound was run in duplicate at a concentration of ATP near the Km for each individual kinase according to Millipore's specifications.

Abl2 = target: T2, Abl2 (Homo sapiens, UniProt P42684); assay: KinaseProfiler Abl2; assay type: biochemical; conditions: 10 μM, ATP near Km
T2 construct: purchased Millipore (KinaseProfiler service)
Text: as §1

ALK = target: T3, ALK (Homo sapiens, UniProt Q9UM73); assay: KinaseProfiler ALK; assay type: biochemical; conditions: 10 μM, ATP near Km
T3 construct: purchased Millipore (KinaseProfiler service)
Text: as §1

ALK4 = target: T4, ALK4 (Homo sapiens, UniProt P36896); assay: KinaseProfiler ALK4; assay type: biochemical; conditions: 10 μM, ATP near Km
T4 construct: purchased Millipore (KinaseProfiler service)
Text: as §1

CAMK2b = target: T5, CAMK2b (Homo sapiens, UniProt Q13554); assay: KinaseProfiler CAMK2b; assay type: biochemical; conditions: 10 μM, ATP near Km
T5 construct: purchased Millipore (KinaseProfiler service)
Text: as §1

CDK1/cyclinB = target: T6, CDK1/cyclinB (Homo sapiens, UniProt P06493); assay: KinaseProfiler CDK1/cyclinB; assay type: biochemical; conditions: 10 μM, ATP near Km
T6 construct: purchased Millipore (KinaseProfiler service)
Text: as §1

CDK2/cyclinE = target: T7, CDK2/cyclinE (Homo sapiens, UniProt P24941); assay: KinaseProfiler CDK2/cyclinE; assay type: biochemical; conditions: 10 μM, ATP near Km
T7 construct: purchased Millipore, Inc. (KinaseProfiler service)
Text: as §1

CDK7/cyclinH/MAT1 = target: T8, CDK7/cyclinH/MAT1 (Homo sapiens, UniProt P50613); assay: KinaseProfiler CDK7/cyclinH/MAT1; assay type: biochemical; conditions: 10 μM, ATP near Km
T8 construct: purchased Millipore, Inc. (KinaseProfiler service)
Text: as §1

CDK9/cyclinT1 = target: T9, CDK9/cyclinT1 (Homo sapiens, UniProt P50750); assay: KinaseProfiler CDK9/cyclinT1; assay type: biochemical; conditions: 10 μM, ATP near Km
T9 construct: purchased Millipore, Inc. (KinaseProfiler service)
Text: as §1

CHK1 = target: T10, CHK1 (Homo sapiens, UniProt O14757); assay: KinaseProfiler CHK1; assay type: biochemical; conditions: 10 μM, ATP near Km
T10 construct: purchased Millipore, Inc. (KinaseProfiler service)
Text: as §1

CK1gamma1 = target: T11, CK1gamma1 (Homo sapiens, UniProt Q9HCP0); assay: KinaseProfiler CK1gamma1; assay type: biochemical; conditions: 10 μM, ATP near Km
T11 construct: purchased Millipore, Inc. (KinaseProfiler service)
Text: as §1

CLK3 = target: T12, CLK3 (Homo sapiens, UniProt P49761); assay: KinaseProfiler CLK3; assay type: biochemical; conditions: 10 μM, ATP near Km
T12 construct: purchased Millipore, Inc. (KinaseProfiler service)
Text: as §1

DMPK = target: T13, DMPK (Homo sapiens, UniProt Q09013); assay: KinaseProfiler DMPK; assay type: biochemical; conditions: 10 μM, ATP near Km
T13 construct: purchased Millipore, Inc. (KinaseProfiler service)
Text: as §1

EphA4 = target: T14, EphA4 (Homo sapiens, UniProt P54764); assay: KinaseProfiler EphA4; assay type: biochemical; conditions: 10 μM, ATP near Km
T14 construct: purchased Millipore, Inc. (KinaseProfiler service)
Text: as §1

EphB3 = target: T15, EphB3 (Homo sapiens, UniProt P54753); assay: KinaseProfiler EphB3; assay type: biochemical; conditions: 10 μM, ATP near Km
T15 construct: purchased Millipore, Inc. (KinaseProfiler service)
Text: as §1

ERK2 = target: T16, ERK2 (Homo sapiens, UniProt P28482); assay: KinaseProfiler ERK2; assay type: biochemical; conditions: 10 μM, ATP near Km
T16 construct: purchased Millipore, Inc. (KinaseProfiler service)
Text: as §1

Flt1 = target: T17, Flt1 (Homo sapiens, UniProt P17948); assay: KinaseProfiler Flt1; assay type: biochemical; conditions: 10 μM, ATP near Km
T17 construct: purchased Millipore, Inc. (KinaseProfiler service)
Text: as §1

Fyn = target: T18, Fyn (Homo sapiens, UniProt P06241); assay: KinaseProfiler Fyn; assay type: biochemical; conditions: 10 μM, ATP near Km
T18 construct: purchased Millipore, Inc. (KinaseProfiler service)
Text: as §1

Hck = target: T19, Hck (Homo sapiens, UniProt P08631); assay: KinaseProfiler Hck; assay type: biochemical; conditions: 10 μM, ATP near Km
T19 construct: purchased Millipore, Inc. (KinaseProfiler service)
Text: as §1

HIPK2 = target: T20, HIPK2 (Homo sapiens, UniProt Q9H2X6); assay: KinaseProfiler HIPK2; assay type: biochemical; conditions: 10 μM, ATP near Km
T20 construct: purchased Millipore, Inc. (KinaseProfiler service)
Text: as §1

IRR = target: T21, IRR (Homo sapiens, UniProt P14616); assay: KinaseProfiler IRR; assay type: biochemical; conditions: 10 μM, ATP near Km
T21 construct: purchased Millipore, Inc. (KinaseProfiler service)
Text: as §1

LOK = target: T22, LOK (Homo sapiens, UniProt O94804); assay: KinaseProfiler LOK; assay type: biochemical; conditions: 10 μM, ATP near Km
T22 construct: purchased Millipore, Inc. (KinaseProfiler service)
Text: as §1

MAP3K5 = target: T23, MAP3K5 (Homo sapiens, UniProt Q99683); assay: KinaseProfiler MAP3K5; assay type: biochemical; conditions: 10 μM, ATP near Km
T23 construct: purchased Millipore, Inc. (KinaseProfiler service)
Text: as §1

MAP4K2 = target: T24, MAP4K2 (Homo sapiens, UniProt Q12851); assay: KinaseProfiler MAP4K2; assay type: biochemical; conditions: 10 μM, ATP near Km
T24 construct: purchased Millipore, Inc. (KinaseProfiler service)
Text: as §1

MAPKAP-K3 = target: T25, MAPKAP-K3 (Homo sapiens, UniProt Q16644); assay: KinaseProfiler MAPKAP-K3; assay type: biochemical; conditions: 10 μM, ATP near Km
T25 construct: purchased Millipore, Inc. (KinaseProfiler service)
Text: as §1

Met = target: T26, Met (Homo sapiens, UniProt P08581); assay: KinaseProfiler Met; assay type: biochemical; conditions: 10 μM, ATP near Km
T26 construct: purchased Millipore, Inc. (KinaseProfiler service)
Text: as §1

MLK1 = target: T27, MLK1 (Homo sapiens, UniProt P80192); assay: KinaseProfiler MLK1; assay type: biochemical; conditions: 10 μM, ATP near Km
T27 construct: purchased Millipore, Inc. (KinaseProfiler service)
Text: as §1

mTOR = target: T28, mTOR (Homo sapiens, UniProt P42345); assay: KinaseProfiler mTOR; assay type: biochemical; conditions: 10 μM, ATP near Km
T28 construct: purchased Millipore, Inc. (KinaseProfiler service)
Text: as §1

NEK11 = target: T29, NEK11 (Homo sapiens, UniProt Q8NG66); assay: KinaseProfiler NEK11; assay type: biochemical; conditions: 10 μM, ATP near Km
T29 construct: purchased Millipore, Inc. (KinaseProfiler service)
Text: as §1

NLK = target: T30, NLK (Homo sapiens, UniProt Q9UBE8); assay: KinaseProfiler NLK; assay type: biochemical; conditions: 10 μM, ATP near Km
T30 construct: purchased Millipore, Inc. (KinaseProfiler service)
Text: as §1

PASK = target: T31, PASK (Homo sapiens, UniProt Q96RG2); assay: KinaseProfiler PASK; assay type: biochemical; conditions: 10 μM, ATP near Km
T31 construct: purchased Millipore, Inc. (KinaseProfiler service)
Text: as §1

PKCepsilon = target: T32, PKCepsilon (Homo sapiens, UniProt Q02156); assay: KinaseProfiler PKCepsilon; assay type: biochemical; conditions: 10 μM, ATP near Km
T32 construct: purchased Millipore, Inc. (KinaseProfiler service)
Text: as §1

Plk1 = target: T33, Plk1 (Homo sapiens, UniProt P53350); assay: KinaseProfiler Plk1; assay type: biochemical; conditions: 10 μM, ATP near Km
T33 construct: purchased Millipore, Inc. (KinaseProfiler service)
Text: as §1

PRKG1alpha = target: T34, PRKG1alpha (Homo sapiens, UniProt Q13976); assay: KinaseProfiler PRKG1alpha; assay type: biochemical; conditions: 10 μM, ATP near Km
T34 construct: purchased Millipore, Inc. (KinaseProfiler service)
Text: as §1

SGK1 = target: T35, SGK1 (Homo sapiens, UniProt O00141); assay: KinaseProfiler SGK1; assay type: biochemical; conditions: 10 μM, ATP near Km
T35 construct: purchased Millipore, Inc. (KinaseProfiler service)
Text: as §1

SIK = target: T36, SIK (Homo sapiens, UniProt P57059); assay: KinaseProfiler SIK; assay type: biochemical; conditions: 10 μM, ATP near Km
T36 construct: purchased Millipore, Inc. (KinaseProfiler service)
Text: as §1

TLK2 = target: T37, TLK2 (Homo sapiens, UniProt Q86UE8); assay: KinaseProfiler TLK2; assay type: biochemical; conditions: 10 μM, ATP near Km
T37 construct: purchased Millipore, Inc. (KinaseProfiler service)
Text: as §1

TrkB = target: T38, TrkB (Homo sapiens, UniProt Q16620); assay: KinaseProfiler TrkB; assay type: biochemical; conditions: 10 μM, ATP near Km
T38 construct: purchased Millipore, Inc. (KinaseProfiler service)
Text: as §1

ULK3 = target: T39, ULK3 (Homo sapiens, UniProt Q6PHR2); assay: KinaseProfiler ULK3; assay type: biochemical; conditions: 10 μM, ATP near Km
T39 construct: purchased Millipore, Inc. (KinaseProfiler service)
Text: as §1

T35 sequence (O00141 whole entry): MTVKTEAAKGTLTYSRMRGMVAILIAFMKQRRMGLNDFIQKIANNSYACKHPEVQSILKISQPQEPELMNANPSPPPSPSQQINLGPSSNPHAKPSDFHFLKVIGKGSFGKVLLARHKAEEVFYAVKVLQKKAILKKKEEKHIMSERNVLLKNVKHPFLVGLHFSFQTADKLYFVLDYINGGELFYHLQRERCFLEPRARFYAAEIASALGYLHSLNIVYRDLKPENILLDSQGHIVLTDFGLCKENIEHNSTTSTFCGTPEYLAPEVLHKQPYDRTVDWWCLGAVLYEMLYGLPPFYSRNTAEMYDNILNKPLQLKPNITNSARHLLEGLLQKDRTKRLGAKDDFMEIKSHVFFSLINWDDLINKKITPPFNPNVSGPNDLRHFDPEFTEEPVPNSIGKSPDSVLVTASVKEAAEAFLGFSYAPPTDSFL
T30 sequence (Q9UBE8 whole entry): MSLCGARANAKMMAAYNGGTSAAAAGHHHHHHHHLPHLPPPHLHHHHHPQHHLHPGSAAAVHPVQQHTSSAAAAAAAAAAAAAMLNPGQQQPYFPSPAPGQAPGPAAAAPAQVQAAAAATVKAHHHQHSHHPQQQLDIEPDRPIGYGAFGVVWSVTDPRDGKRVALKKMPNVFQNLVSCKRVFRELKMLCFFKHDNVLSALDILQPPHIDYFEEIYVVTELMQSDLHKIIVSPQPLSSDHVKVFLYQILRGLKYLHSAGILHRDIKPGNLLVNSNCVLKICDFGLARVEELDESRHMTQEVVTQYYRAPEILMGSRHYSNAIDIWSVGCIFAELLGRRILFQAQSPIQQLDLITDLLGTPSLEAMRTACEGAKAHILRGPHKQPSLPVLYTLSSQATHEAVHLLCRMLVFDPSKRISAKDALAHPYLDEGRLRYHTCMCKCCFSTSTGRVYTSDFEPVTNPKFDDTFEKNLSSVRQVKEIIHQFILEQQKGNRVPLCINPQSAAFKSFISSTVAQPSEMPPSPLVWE
T10 sequence (O14757 whole entry): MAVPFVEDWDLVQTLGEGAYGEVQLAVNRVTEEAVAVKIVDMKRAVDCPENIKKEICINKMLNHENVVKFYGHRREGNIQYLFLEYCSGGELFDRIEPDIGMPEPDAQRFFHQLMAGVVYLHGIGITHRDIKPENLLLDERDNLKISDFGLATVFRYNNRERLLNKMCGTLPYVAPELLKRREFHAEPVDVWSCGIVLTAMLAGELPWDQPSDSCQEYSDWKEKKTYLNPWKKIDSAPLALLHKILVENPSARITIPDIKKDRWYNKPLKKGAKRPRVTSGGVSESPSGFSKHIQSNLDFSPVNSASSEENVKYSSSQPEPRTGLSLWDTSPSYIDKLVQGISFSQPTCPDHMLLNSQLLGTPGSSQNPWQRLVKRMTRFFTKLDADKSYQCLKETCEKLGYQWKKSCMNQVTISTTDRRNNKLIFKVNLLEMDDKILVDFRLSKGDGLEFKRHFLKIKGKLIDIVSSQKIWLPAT
T19 sequence (P08631 whole entry): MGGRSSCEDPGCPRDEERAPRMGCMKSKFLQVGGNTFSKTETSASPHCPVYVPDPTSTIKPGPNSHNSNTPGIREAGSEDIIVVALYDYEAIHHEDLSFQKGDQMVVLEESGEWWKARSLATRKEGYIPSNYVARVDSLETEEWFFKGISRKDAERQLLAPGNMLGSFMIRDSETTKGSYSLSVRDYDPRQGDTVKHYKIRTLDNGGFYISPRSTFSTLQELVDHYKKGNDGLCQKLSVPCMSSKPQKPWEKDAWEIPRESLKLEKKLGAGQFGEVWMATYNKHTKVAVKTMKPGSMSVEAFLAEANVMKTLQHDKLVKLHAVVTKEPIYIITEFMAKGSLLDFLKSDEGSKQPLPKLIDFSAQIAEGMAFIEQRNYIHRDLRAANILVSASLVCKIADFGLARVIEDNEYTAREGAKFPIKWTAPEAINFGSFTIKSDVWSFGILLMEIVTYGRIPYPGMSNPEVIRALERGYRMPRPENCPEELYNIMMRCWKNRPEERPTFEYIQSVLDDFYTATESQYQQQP
T22 sequence (O94804 whole entry): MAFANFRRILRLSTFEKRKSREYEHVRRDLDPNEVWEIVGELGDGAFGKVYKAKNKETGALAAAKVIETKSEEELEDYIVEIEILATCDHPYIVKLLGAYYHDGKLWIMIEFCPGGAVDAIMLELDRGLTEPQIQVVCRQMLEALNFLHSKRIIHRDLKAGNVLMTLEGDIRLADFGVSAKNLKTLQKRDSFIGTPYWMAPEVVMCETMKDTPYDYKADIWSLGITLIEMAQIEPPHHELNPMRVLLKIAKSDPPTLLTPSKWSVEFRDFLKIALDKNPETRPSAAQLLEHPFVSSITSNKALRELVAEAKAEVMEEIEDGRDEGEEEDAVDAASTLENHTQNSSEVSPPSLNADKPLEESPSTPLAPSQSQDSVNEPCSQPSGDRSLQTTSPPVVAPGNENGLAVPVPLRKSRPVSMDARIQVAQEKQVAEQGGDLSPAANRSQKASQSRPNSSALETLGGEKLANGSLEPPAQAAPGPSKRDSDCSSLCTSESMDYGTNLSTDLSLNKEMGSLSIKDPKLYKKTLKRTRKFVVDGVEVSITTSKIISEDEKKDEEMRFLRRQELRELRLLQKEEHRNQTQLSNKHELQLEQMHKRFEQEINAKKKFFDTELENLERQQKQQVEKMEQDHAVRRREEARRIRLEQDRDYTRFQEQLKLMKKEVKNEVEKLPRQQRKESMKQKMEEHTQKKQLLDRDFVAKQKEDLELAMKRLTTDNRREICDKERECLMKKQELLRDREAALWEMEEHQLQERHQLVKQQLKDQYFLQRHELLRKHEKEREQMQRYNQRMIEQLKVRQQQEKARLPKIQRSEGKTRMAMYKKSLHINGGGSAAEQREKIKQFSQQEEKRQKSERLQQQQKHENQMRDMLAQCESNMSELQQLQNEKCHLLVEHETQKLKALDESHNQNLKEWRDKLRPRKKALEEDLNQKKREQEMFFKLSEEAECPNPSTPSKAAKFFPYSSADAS
T6 sequence (P06493 whole entry): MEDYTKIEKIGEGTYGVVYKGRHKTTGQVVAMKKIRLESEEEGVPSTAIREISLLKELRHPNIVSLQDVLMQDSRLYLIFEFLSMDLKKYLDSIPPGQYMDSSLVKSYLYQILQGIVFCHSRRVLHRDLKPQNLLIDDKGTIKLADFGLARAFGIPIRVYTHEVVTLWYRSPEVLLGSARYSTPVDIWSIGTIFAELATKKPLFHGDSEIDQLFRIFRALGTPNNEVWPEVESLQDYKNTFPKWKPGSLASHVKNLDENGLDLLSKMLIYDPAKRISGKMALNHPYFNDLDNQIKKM
T6 sequence (P14635 whole entry partner): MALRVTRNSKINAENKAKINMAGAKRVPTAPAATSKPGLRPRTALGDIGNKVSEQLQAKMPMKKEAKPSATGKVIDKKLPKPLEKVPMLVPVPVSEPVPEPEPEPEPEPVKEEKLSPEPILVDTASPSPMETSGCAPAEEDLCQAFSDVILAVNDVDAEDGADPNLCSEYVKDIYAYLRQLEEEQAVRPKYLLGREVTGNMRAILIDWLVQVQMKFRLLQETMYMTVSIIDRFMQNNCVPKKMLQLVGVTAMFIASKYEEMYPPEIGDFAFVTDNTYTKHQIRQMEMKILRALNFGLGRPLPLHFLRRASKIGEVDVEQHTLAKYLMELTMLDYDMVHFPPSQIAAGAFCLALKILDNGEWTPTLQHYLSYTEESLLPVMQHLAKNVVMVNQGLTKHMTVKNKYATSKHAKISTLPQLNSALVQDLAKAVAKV
T1 sequence (P04629 440-796 limits assumed): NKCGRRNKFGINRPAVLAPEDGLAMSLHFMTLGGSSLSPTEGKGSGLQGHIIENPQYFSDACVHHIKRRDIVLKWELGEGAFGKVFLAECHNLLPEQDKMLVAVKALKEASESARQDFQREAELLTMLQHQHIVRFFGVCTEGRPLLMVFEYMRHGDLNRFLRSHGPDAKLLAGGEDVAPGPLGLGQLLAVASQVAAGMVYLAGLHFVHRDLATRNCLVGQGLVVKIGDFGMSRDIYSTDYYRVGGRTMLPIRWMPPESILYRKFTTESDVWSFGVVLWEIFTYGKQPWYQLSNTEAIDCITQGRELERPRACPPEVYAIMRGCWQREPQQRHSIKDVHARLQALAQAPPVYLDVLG
T13 sequence (Q09013 whole entry): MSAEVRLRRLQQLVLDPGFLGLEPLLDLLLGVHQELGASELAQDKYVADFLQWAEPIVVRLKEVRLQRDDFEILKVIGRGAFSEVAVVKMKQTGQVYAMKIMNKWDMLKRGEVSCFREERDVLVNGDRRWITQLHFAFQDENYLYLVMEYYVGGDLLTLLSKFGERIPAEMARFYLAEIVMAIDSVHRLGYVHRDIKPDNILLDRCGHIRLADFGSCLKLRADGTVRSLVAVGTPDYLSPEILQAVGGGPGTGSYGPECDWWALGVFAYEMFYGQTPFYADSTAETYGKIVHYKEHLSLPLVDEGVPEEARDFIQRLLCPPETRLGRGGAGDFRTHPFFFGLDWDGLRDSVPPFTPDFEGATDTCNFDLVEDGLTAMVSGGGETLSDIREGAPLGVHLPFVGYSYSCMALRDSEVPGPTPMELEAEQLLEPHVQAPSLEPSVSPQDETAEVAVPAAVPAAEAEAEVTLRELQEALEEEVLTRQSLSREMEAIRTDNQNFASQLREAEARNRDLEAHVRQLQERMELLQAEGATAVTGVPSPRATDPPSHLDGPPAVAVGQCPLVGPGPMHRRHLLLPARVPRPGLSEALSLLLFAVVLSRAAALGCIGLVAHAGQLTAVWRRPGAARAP

Cc1c(-c2cnn(C)c2)nn(-c2ccccc2)c1NC(=O)Nc1cc(C(F)(F)F)nn1-c1ccccc1 [Example 3, 1-(1′,4-dimethyl-1-phenyl-1H,1′H-[3,4′-bipyrazol]-5-yl)-3-(1-phenyl-3-(trifluoromethyl)-1H-pyrazol-5-yl)urea]
IC50 [1]: < 100 nM | activity against off-target kinases (off-target kinases): largely inactive | Avg POC (Abl2): 148.5 POC | Avg POC (ALK): 110 POC | Avg POC (ALK4): 104.5 POC | Avg POC (CAMK2b): 96.5 POC | Avg POC (CDK1/cyclinB): 102.5 POC | Avg POC (CDK2/cyclinE): 106.5 POC | Avg POC (CDK7/cyclinH/MAT1): 120.5 POC | Avg POC (CDK9/cyclinT1): 107.5 POC | Avg POC (CHK1): 108 POC | Avg POC (CK1gamma1): 112 POC | Avg POC (CLK3): 104 POC | Avg POC (DMPK): 105 POC | Avg POC (EphA4): 106.5 POC | Avg POC (EphB3): 63 POC | Avg POC (ERK2): 116 POC | Avg POC (Flt1): 91.5 POC | Avg POC (Fyn): 110 POC | Avg POC (Hck): 110.5 POC | Avg POC (HIPK2): 101.5 POC | Avg POC (IRR): 99.5 POC | Avg POC (LOK): 97.5 POC | Avg POC (MAP3K5): 102 POC | Avg POC (MAP4K2): 113 POC | Avg POC (MAPKAP-K3): 128.5 POC | Avg POC (Met): 129 POC | Avg POC (MLK1): 100.5 POC | Avg POC (mTOR): 78.5 POC | Avg POC (NEK11): 110 POC | Avg POC (NLK): 116.5 POC | Avg POC (PASK): 147 POC | Avg POC (PKCepsilon): 98 POC | Avg POC (Plk1): 95 POC | Avg POC (PRKG1alpha): 108 POC | Avg POC (SGK1): 276.5 POC | Avg POC (SIK): 154.5 POC | Avg POC (TLK2): 108.5 POC | Avg POC (TrkB): 95 POC | Avg POC (ULK3): 90.5 POC

— patent US9809578B2, “Pyrazolyl urea, thiourea, guanidine and cyanoguanidine compounds as trkA kinase inhibitors” (Array BioPharma Inc., priority 2012, dated 2017)
